Measured values taken from US20240383911A1, “AZAINDAZOLE MACROCYCLE COMPOUNDS AND USES THEREOF” (BROADENBIO CO., LTD, priority 2021, published 2024).

What was measured:
[1] = biological target: HPK1 (Homo sapiens, UniProt Q92918); assay: HPK1 kinase activity inhibition test (ADP-Glo, luminescence); type: biochemical; conditions: 2 μM ATP, 5 nM HPK1, read-out: IC50, inhibitory effects on HPK1 kinase activity
Method in brief: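 Autophosphorylation assay without added substrate: HPK1 preincubated with compound 10 min at 25 °C, then ATP added for 60 min at 25 °C; final DMSO 0.5%. ADP measured by ADP-Glo luminescence; IC50 from four-parameter nonlinear fit.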

[2] = tested on: Human Jurkat-E6-1 cells; assay: Detection of IL-2 production by Jurkat cells using ELISA; type: cell-based; conditions: anti-CD3/anti-CD28 stimulation 24 hours, read-out: Percentage of the amount of IL-2 secreted by compound treated vs DMSO-treated cells; for activity at 0.33 µM: tested compound 0.33 μM; for activity at 1 µM: tested compound 1.0 μM
Method in brief: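 Jurkat E6-1 cells were pre-incubated with compound for 30 min at 37 °C, then stimulated 24 h on plate-bound anti-CD3 plus soluble anti-CD28. Secreted IL-2 in supernatant was measured by sandwich ELISA (450 nm) against a standard curve and expressed as % of DMSO-treated cells.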

[3] = tested on: MV-4-11 cells; assay: Detection of MV-4-11 cell activity (CellTiter-Glo); type: cell-based; conditions: Homo sapiens, MV4-11, 120 h, 5 days, CTG, read-out: IC50, inhibitory effects on MV-4-11 cell activity
Procedure: The CellTiter-Glo (CTG) luminescence method was used to detect the effect of compounds on the activity of MV-4-11 cells.
Tested compounds: compound prepared in the Examples of the present invention.
Add 100 μL containing 20,000 MV-4-11 (human myeloid monocytic leukemia cells, from the Cell Bank of the Chinese Academy of Sciences, Cat. No. SCSP-5031) cell suspension to 96-well flat-bottom clear-bottomed cell plates (Corning, Cat #3603), and then add 100 μL of cell culture medium containing a series of concentrations of the compound to be tested, with a total volume of 200 μL per well. The final gradient concentrations of the compounds were 500 nM, 125 nM, 31.25 nM, 7.813 nM, 1.953 nM, 0.488 nM, 0.122 nM, 0.031 nM, and 0.008 nM, and the final DMSO content was 0.5%. Set cells with the cell culture medium containing 0.5% DMSO but without compounds as the 100% control; set the culture medium wells without cells as 0% background control. Incubate the cell plate in a humidified incubator at 37° C. and 5% CO2 for 5 days. After 5 days, take out the cell plate, centrifuge (1000 rpm) for 5 minutes, remove and discard 100 μL supernatant, add 100 μL CTG reagent (Promega, Cat #G7572) to each well, shake at room temperature for 10 minutes to promote cell lysis, and incubate at room temperature for 30 minutes to stabilize the luminescence signal. Use a microplate reader (Molecular Device, i3X) to read the Luminescent fluorescence value, use GraphPad Prism 5.0 software to analyze the original data, use nonlinear S-curve regression to fit the data to obtain the dose-effect curve (cell survival rate %), and calculate the IC50 value.

[4] = biological target: T1, FLT3 (Homo sapiens, UniProt P36888); assay: FLT3 kinase activity inhibition test (HTRF); type: biochemical; conditions: read-out: IC50, inhibitory effects on FLT3 kinase activity
T1 sequence (P36888 27-993): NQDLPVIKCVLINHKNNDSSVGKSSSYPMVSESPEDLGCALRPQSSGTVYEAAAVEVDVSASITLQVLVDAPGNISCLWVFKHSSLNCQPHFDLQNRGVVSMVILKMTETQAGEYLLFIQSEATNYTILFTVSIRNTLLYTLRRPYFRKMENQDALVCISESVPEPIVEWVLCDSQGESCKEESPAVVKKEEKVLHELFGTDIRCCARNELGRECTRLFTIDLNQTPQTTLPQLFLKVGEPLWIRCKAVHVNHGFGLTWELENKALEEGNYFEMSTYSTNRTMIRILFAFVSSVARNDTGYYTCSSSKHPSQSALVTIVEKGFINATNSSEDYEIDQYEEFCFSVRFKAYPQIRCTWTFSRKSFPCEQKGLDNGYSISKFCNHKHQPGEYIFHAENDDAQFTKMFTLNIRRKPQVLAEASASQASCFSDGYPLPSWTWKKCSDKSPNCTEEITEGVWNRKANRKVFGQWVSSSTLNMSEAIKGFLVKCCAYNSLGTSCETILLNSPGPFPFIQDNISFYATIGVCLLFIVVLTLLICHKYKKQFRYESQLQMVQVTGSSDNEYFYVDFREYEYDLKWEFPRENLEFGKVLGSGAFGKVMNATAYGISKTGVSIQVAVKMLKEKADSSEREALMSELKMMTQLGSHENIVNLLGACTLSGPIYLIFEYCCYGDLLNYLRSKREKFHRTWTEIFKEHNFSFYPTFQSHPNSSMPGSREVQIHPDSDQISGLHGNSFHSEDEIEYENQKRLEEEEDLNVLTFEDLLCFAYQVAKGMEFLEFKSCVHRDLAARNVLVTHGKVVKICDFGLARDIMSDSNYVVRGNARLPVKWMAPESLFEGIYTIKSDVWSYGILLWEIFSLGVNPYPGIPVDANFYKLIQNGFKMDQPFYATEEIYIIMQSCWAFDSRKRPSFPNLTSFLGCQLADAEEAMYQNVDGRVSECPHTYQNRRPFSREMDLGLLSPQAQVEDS
Procedure: (§1) Tested compounds: compounds prepared in the Examples of this invention.
(§2) Prepare compound stock solution: dissolve the test compound in 100% DMSO to make a 10 mM stock solution. Dilute the stock solution of the test compound by 5 times with 100% DMSO, make a 4-fold equal dilution in a 96-well dilution plate, add 1 μL of the compound to 39 μL of kinase reaction buffer (1×kinase buffer, 5 mM MgCl2, 1 mM DTT), and shake on a microplate shaker for 20 minutes. 4×Positive control (4 μL of positive compound solution of the starting concentration, add 196 μL of kinase buffer) and 4×negative control (4 μL of 100% DMSO, add 196 μL of kinase buffer).
(§3) (1) Use 1×kinase reaction buffer to prepare 2.5×FLT3 kinase solution (160 μM), transfer 2 μL of the kinase solution to the 384 reaction plate, and add 1 μL of the test compound solution of gradient concentration to the 384 reaction plate (Greiner, Cat #784075), centrifuge for 1 minute (1000 rpm), and incubate at 25° C. for 10 minutes.
(§4) (2) Use 1×kinase reaction buffer to prepare 2.5×TK-substrate-biotin (2.5 μM) and 2.5×ATP (2.5 μM), mix well, and add 2 μL of the TK-substrate-biotin/ATP solution to the 384 reaction plate, centrifuge for 30 seconds (1000 rpm), and incubate at 25° C. for 40 minutes.
(§5) (3) Use HTRF detection buffer to prepare 2×Sa-XL 665 (125 nM) and 1×TK-antibody-Cryptate. Add 5 μL of a mixture of Sa-XL 665 and TK-antibody-Cryptate solutions to each well, centrifuge for 30 seconds (1000 rpm), and react at room temperature for 1 hour.
(§6) (4) The fluorescence signal is read using a Biotek multi-function plate reader, and the IC50 (half inhibitory concentration) of the compound is obtained using a four-coefficient nonlinear fitting formula.

[5] = biological target: KDR (Homo sapiens, UniProt P35968); assay: KDR kinase activity inhibition test (HTRF); type: biochemical; conditions: read-out: IC50, inhibitory effects on KDR kinase activity
Procedure: as §1, §2
as §3, with “2.5×KDR” for “2.5×FLT3”, “(250” for “(160”
as §4, §5, §6

Chain of HPK1 (Q92918 whole entry): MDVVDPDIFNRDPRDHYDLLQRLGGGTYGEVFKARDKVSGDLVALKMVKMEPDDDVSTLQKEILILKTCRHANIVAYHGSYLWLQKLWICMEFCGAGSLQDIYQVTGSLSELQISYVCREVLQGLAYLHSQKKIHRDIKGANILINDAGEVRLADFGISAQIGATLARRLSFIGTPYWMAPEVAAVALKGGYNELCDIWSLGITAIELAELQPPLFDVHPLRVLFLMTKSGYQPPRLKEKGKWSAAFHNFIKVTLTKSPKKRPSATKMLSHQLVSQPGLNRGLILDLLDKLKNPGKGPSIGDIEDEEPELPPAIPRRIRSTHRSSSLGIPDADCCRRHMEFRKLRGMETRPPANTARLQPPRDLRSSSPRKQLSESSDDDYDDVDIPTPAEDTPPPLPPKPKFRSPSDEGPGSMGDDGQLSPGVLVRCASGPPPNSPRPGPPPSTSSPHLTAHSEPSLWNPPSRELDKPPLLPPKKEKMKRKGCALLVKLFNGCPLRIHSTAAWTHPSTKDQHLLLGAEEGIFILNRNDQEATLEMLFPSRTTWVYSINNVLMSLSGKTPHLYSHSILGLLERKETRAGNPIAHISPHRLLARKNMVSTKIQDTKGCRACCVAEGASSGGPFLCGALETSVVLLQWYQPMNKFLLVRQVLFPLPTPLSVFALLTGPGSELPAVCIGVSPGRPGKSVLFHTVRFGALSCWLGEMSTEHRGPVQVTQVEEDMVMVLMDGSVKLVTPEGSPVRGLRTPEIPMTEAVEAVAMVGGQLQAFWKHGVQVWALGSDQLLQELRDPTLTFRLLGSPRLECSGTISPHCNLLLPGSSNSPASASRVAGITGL
Chain of KDR (P35968 20-1356): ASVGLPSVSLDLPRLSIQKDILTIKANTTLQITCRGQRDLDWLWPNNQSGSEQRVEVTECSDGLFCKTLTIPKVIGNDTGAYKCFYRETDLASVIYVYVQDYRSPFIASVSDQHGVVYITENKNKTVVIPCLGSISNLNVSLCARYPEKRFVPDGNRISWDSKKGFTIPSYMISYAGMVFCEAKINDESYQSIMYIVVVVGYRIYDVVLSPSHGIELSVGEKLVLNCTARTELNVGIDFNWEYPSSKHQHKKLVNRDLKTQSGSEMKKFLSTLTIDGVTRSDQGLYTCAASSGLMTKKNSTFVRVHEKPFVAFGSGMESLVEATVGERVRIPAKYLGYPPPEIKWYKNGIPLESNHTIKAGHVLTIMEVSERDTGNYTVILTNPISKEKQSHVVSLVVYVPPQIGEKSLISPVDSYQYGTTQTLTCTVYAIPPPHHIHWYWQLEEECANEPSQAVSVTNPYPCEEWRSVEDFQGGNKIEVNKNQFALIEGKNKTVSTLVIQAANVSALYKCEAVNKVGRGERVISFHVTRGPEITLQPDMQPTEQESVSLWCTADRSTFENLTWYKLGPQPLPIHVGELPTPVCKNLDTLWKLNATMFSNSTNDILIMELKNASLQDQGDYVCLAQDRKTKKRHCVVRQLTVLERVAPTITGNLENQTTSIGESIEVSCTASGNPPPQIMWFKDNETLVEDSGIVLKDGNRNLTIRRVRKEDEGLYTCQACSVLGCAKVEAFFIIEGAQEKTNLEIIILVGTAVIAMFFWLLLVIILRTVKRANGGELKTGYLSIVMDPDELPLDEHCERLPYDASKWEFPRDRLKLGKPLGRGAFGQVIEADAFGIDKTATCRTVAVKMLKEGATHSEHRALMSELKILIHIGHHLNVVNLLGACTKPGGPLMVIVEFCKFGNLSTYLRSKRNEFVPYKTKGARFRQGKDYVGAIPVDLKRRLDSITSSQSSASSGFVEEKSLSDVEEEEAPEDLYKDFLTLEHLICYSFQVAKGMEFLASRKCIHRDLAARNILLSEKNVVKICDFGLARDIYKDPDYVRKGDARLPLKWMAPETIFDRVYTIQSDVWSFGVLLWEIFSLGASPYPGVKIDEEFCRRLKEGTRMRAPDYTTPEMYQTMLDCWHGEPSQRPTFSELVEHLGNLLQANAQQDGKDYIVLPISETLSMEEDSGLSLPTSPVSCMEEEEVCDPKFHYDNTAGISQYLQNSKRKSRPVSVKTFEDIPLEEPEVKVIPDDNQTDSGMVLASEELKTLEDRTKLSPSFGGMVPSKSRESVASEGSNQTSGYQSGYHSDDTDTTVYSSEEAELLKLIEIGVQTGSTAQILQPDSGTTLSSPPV

Work on `Fc1cccc2c1-c1cc3c(n[nH]c3cn1)-c1ccc(N3CCOCC3)c(c1)OCCCO2` [Compound 5, 16-fluoro-5-(morpholin-4-yl)-7,11-dioxa-19,22,23-triazapentacyclo[16.5.2.1^2,6.0^12,17.0^21,24]hexacosa-1(23),2(26),3,5,12,14,16,18,20,24-decaene] yielded an IC50 [1] of 5 to 50 nM, an activity at 3 µM ([2]; tested compound 3.0 μM) of 717% and an IC50 [3] of 50 nM.
With `CN1CCN(c2ccc3cc2OCCCOCc2cccc(F)c2-c2cc4c-3n[nH]c4cn2)CC1` [Compound 11, 17-fluoro-5-(4-methylpiperazin-1-yl)-7,11-dioxa-20,23,24-triazapentacyclo[17.5.2.1^2,6.0^13,18.0^22,25]heptacosa-1(24),2(27),3,5,13,15,17,19,21,25-decaene] the IC50 [1] was at most 5 nM, the IC50 [4] was at most 5 nM and the IC50 [5] was at most 5 nM. It also gave an IC50 [3] of 6.1 nM.
`Fc1cccc2c1-c1cc3c(n[nH]c3cn1)-c1ccc(N3CCN4CCOC[C@H]4C3)c(c1)OCCCOC2` [Compound 103, 5-[(9aR)-octahydropyrazino[2,1-c][1,4]oxazin-8-yl]-17-fluoro-7,11-dioxa-20,23,24-triazapentacyclo[17.5.2.1^2,6.0^13,18.0^22,25]heptacosa-1(24),2,4,6(27),13(18),14,16,19,21,25-decaene] gave an IC50 [1] of at most 5 nM, an IC50 [4] of at most 5 nM and an IC50 [5] of at most 5 nM. The activity at 0.33 µM [2] was 580%.
In the case of `O[C@H]1COc2cc(ccc2N2CCN3CCOC[C@H]3C2)-c2n[nH]c3cnc(cc23)-c2c(F)cccc2OC1` [Compound 119, (9R)-5-[(9aR)-octahydropyrazino[2,1-c][1,4]oxazin-8-yl]-16-fluoro-7,11-dioxa-19,22,23-triazapentacyclo[16.5.2.1^2,6.0^12,17.0^21,24]hexacosa-1(23),2,4,6(26),12(17),13,15,18,20,24-decaen-9-ol], the IC50 [1] is reported as 5 to 50 nM, the IC50 [4] is reported as at most 5 nM and the IC50 [5] is reported as at most 5 nM. The activity at 0.33 µM [2] was 591%.
With `CN1CCN(c2ccc3cc2OCCCOCc2cccc(F)c2-c2cc4c-3n[nH]c4cn2)C[C@H]1CO` [Compound 122, [(2S)-4-{17-fluoro-7,11-dioxa-20,23,24-triazapentacyclo[17.5.2.1^2,6.0^13,18.0^22,25]heptacosa-1(24),2,4,6(27),13(18),14,16,19,21,25-decaen-5-yl}-1-methylpiperazin-2-yl]methanol] the IC50 [1] was at most 5 nM, the IC50 [4] was at most 5 nM and the IC50 [5] was at most 5 nM. For the same compound, the activity at 0.33 µM [2] was 345%.
`CN1C2CCC1CN(c1ccc3cc1OCCCOc1cccc(F)c1-c1cc4c-3n[nH]c4cn1)C2` [Compound 144, 16-fluoro-5-{8-methyl-3,8-diazabicyclo[3.2.1]octan-3-yl}-7,11-dioxa-19,22,23-triazapentacyclo[16.5.2.1^2,6.0^12,17.0^21,24]hexacosa-1(23),2,4,6(26),12(17),13,15,18,20,24-decaene] gave an IC50 [1] of at most 5 nM, an IC50 [4] of at most 5 nM and an IC50 [5] of at most 5 nM. It also gave an activity at 1 µM [2] of 517%.
In the case of `CN1C[C@@H]2C[C@H]1CN2c1ccc2cc1OCCCOCc1cccc(F)c1-c1cc3c-2n[nH]c3cn1` [Compound 151, 17-fluoro-5-[(1S,4S)-5-methyl-2,5-diazabicyclo[2.2.1]heptan-2-yl]-7,11-dioxa-20,23,24-triazapentacyclo[17.5.2.1^2,6.0^13,18.0^22,25]heptacosa-1(24),2,4,6(27),13(18),14,16,19,21,25-decaene], the IC50 [1] is reported as at most 5 nM, the IC50 [4] is reported as at most 5 nM and the IC50 [5] is reported as at most 5 nM. It also gave an activity at 1 µM [2] of 416%.
